Publication PMC11827123 (Journal of medicinal chemistry, 2023)
Blank lines part the entries; values can stand above or below the compound they belong to.

Columns and labels:
[1] = tested on: RBC; test: RBC lysis in vitro assay; type: cell-based
[2] = Microsomal; type: in vitro ADME, human; conditions: result in words
[3] = tested on: human red blood cells (RBCs); test: In vitro hemolysis assay, human RBCs; type: cell-based
[4] = Mouse pharmacokinetics, oral and intravenous dosing; conditions: mice, PK study with oral and iv dosing
[5] = FeSSIF solubility; type: physicochemical; conditions: result in words
[6] = tested on: mouse red blood cells (RBCs); test: In vitro hemolysis assay, mouse RBCs; type: cell-based
[7] = tested on: MOLT4 cells; test: Quantitative MS degradation proteomics in MOLT4 cells; conditions: 6 h treatment
[8] = tested on: HepG2 cell line; test: LipidTOX Red phospholipidosis imaging assay; type: cell-based
[9] = tested on: HepG2 cell line; test: HepG2 viability; type: cell-based
[10] = tested on: HiBiT-tagged v3 EML4-ALK (WT and clinically relevant mutations); test: EML4-ALK HiBiT degradation assay, general / clinically relevant mutations; conditions: result in words
[11] = biological target: HiBiT-tagged v3 EML4-ALK G1202R (Homo sapiens, UniProt Q9HC35+Q9UM73, G1202R); test: EML4-ALK HiBiT degradation assay, G1202R; conditions: Ba/F3, result in words
[12] = biological target: HiBiT-tagged v3 EML4-ALK wild-type (WT) (Homo sapiens, UniProt Q9HC35+Q9UM73); test: EML4-ALK HiBiT degradation assay, WT; conditions: result in words
Sequence of HiBiT-tagged v3 EML4-ALK wild-type (WT) (Q9UM73 1058-1620 limits assumed, one chain of several): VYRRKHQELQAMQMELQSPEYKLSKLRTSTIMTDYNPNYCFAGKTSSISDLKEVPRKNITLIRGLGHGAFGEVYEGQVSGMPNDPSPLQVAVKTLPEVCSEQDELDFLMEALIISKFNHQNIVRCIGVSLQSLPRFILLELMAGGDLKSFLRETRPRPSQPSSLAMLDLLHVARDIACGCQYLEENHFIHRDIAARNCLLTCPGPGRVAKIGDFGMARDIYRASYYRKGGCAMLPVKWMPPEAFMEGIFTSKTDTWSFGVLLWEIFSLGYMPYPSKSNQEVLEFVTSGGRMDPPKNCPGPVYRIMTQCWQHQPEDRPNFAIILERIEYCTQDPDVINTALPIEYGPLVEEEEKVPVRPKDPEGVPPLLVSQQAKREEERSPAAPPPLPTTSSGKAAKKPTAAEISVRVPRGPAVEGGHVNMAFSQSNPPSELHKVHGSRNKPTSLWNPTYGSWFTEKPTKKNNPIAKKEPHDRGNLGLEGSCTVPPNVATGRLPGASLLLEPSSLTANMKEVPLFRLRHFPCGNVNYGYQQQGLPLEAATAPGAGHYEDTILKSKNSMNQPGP

Sequence of HiBiT-tagged v3 EML4-ALK G1202R (Q9UM73 1058-1620 G1202R limits assumed, one chain of several): as the sequence (Q9UM73 1058-1620 limits assumed, one chain of several) above, with G145R counted along it

RBC lysis in vitro [1]: caused RBC lysis
SMILES: COc1cc(CCNCCCCCC#Cc2cccc3c2C(=O)N(C2CCC(=O)NC2=O)C3=O)c(C)cc1Nc1ncc(Cl)c(Nc2ccccc2S(=O)(=O)C(C)C)n1 (centres unmarked) [CPD-198, 4-(7-((4-((5-Chloro-4-((2-(isopropylsulfonyl)-phenyl)amino)pyrimidin-2-yl)amino)-5-methoxy-2-methylphenethyl)amino)hept-1-yn-1-yl)-2-(2,6-dioxopiperidin-3-yl)isoindoline-1,3-dione]

solubility in fed state simulated intestinal fluid (FeSSIF) [5]: good solubility
SMILES: COc1cc(CCNCCCCCC#Cc2cccc3c2CN(C2CCC(=O)NC2=O)C3=O)c(C)cc1Nc1ncc(Cl)c(Nc2ccccc2S(=O)(=O)C(C)C)n1 (centres unmarked) [CPD-985, 3-(4-(7-((4-((5-Chloro-4-((2-(isopropylsulfonyl)-phenyl)amino)pyrimidin-2-yl)amino)-5-methoxy-2-methylphenethyl)amino)hept-1-yn-1-yl)-1-oxoisoindolin-2-yl)piperidine-2,6-dione]
metabolic / microsomal stability [2]: slightly improved metabolic stability relative to CPD-198
in vitro hemolysis [3]: confirmed
hemolysis in vivo [4]: hemolysis was also observed
in vitro hemolysis [6]: confirmed

RBC lysis in vitro [1]: weak positive
SMILES: COc1cc(C2CCN(CCCCCC#Cc3cccc4c3CN(C3CCC(=O)NC3=O)C4=O)CC2)c(C)cc1Nc1ncc(Cl)c(Nc2ccccc2S(=O)(=O)C(C)C)n1 (centres unmarked) [CPD-1108, 3-(4-(7-(4-(4-((5-Chloro-4-((2-(isopropylsulfonyl)phenyl)amino)pyrimidin-2-yl)amino)-5-methoxy-2-methylphenyl)piperidin-1-yl)hept-1-yn-1-yl)-1-oxoisoindolin-2-yl)piperidine-2,6-dione]

metabolic / microsomal stability [2]: good microsomal stability
RBC lysis in vitro [1]: RBC lysis was avoided
SMILES: COc1cc(C2CCN(CCCC#Cc3cccc4c3CN(C3CCC(=O)NC3=O)C4=O)CC2)c(C)cc1Nc1ncc(Cl)c(Nc2ccccc2S(=O)(=O)C(C)C)n1 (centres unmarked) [CPD-1131]
proteins degraded to any significant extent [7]: five

RBC lysis in vitro [1]: did not possess RBC lysis
SMILES: COc1cc(C2CCN(CC3CN(c4ccc5c(c4)C(=O)N(C4CCC(=O)NC4=O)C5=O)C3)CC2)c(C)cc1Nc1ncc(Cl)c(Nc2ccccc2S(=O)(=O)C(C)C)n1 (centres unmarked) [CPD-1224, 5-{3-[(4-{4-[(5-Chloro-4-{[2-(propane-2-sulfonyl)phenyl]amino}pyrimidin-2-yl)amino]-5-methoxy-2-methylphenyl}piperidin-1-yl)methyl]azetidin-1-yl}−2-(2,6-dioxopiperidin-3-yl)-2,3-dihydro-1H-isoindole-1,3-dione]
phospholipidosis (phospholipid accumulation) [8]: did not possess these effects
metabolic / microsomal stability [2]: improved metabolic stability relative to the isoindolinone congener CPD-1793
cytotoxicity [9]: did not possess these effects

SMILES: COc1cc(C2CCN(CC3CN(c4ccc5c(c4)C(=O)N(C4CCC(=O)N(C)C4=O)C5=O)C3)CC2)c(C)cc1Nc1ncc(Cl)c(Nc2ccccc2S(=O)(=O)C(C)C)n1 (centres unmarked) [CPD-1224NC, 5-(3-((4-(4-((5-Chloro-4-((2-(isopropylsulfonyl)-phenyl)amino)pyrimidin-2-yl)amino)-5-methoxy-2-methylphenyl)piperidin-1-yl)methyl)azetidin-1-yl)-2-(1-methyl-2,6-dioxopiperidin-3-yl)isoindoline-1,3-dione]
EML4-ALK degradation potency / efficacy (general, clinical mutations) [10]: retains weak degradation activity

metabolic / microsomal stability [2]: high microsomal stability
SMILES: CCc1cc2c(cc1N1CCN(CC3CN(c4ccc5c(c4)C(=O)N(C4CCC(=O)NC4=O)C5=O)C3)CC1)C(C)(C)c1[nH]c3cc(C#N)ccc3c1C2=O (centres unmarked) [CPD-1403, 8-(4-((1-(2-(2,6-Dioxopiperidin-3-yl)-1,3-dioxoisoindolin-5-yl)azetidin-3-yl)methyl)piperazin-1-yl)-9-ethyl-6,6-dimethyl-11-oxo-6,11-dihydro-5H-benzo[b]carbazole-3-carbonitrile]

degradation activity for G1202R mutation [11]: low degradation activity
shift between cellular ALK occupancy (NanoBRET) and degradation potency, WT [12]: only a small shift
SMILES: Cc1cc(Nc2ncc(Cl)c(Nc3ccccc3S(=O)(=O)C(C)C)n2)c(OC(C)C)cc1C1CCN(CCOCCOCCNC(=O)CNc2cccc3c2C(=O)N(C2CCC(=O)NC2=O)C3=O)CC1 (centres unmarked) [TL13–112]

SMILES: Cc1cc(Nc2ncc(Cl)c(Nc3ccccc3S(=O)(=O)C(C)C)n2)c(OC(C)C)cc1C1CCNCC1 [ceritinib, reference compound]
phospholipidosis (phospholipid accumulation) [8]: confirmed the phospholipidosis
cytotoxicity [9]: cytotoxicity
